Test results reported in patent US9539298B2, “Lissencephaly therapeutic agent” (OSAKA CITY UNIVERSITY, priority 2010, dated 2017).
Non-standard residues stand in square brackets, D forms with d. Residues, ends and D or L forms follow the SMILES beside them. Nle = CCCC[CH](N)C(=O)O

Columns and labels:
[1] = biological target: T1, μ-calpain (derived from human red blood cells) (Homo sapiens, UniProt P07384); test: Measurement of inhibitory activity against μ-calpain; format: biochemical; settings: casein substrate, 30° C., 60 minutes; read-out: enzyme inhibitory activities (μM) μ-calpain
T1 construct: derived from human red blood cells; purchased Cosmo Bio Co., Ltd; host or cells: human red blood cells (tissue-purified)
T1 sequence (P07384 1-714): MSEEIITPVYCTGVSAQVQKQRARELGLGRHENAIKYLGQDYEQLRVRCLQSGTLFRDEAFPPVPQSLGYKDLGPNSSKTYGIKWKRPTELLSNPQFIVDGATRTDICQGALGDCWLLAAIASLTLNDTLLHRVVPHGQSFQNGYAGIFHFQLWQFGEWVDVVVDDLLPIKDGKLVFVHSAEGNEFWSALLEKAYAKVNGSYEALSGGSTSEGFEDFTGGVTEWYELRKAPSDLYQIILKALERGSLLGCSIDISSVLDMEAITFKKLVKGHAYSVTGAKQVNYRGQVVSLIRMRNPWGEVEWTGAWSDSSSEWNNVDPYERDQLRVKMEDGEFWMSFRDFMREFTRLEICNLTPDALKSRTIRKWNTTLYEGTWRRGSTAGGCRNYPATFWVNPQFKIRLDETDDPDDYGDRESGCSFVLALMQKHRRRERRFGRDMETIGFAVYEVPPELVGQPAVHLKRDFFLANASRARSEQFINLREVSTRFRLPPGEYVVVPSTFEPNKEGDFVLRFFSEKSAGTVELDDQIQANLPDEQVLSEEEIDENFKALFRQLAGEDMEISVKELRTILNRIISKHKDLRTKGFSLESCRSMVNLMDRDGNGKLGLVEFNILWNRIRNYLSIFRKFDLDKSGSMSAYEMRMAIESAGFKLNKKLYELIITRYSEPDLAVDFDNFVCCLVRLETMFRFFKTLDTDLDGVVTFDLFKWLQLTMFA
T1 sequence (P04632 1-268 partner): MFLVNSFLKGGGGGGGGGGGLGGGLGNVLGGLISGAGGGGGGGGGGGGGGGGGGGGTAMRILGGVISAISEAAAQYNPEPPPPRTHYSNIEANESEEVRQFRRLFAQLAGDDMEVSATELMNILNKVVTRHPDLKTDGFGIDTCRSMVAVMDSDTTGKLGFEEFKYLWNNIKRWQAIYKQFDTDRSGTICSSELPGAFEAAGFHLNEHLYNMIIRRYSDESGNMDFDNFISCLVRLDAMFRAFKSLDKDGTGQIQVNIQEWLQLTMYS
Description: (§1) The inhibitory activity against μ-calpain and m-calpain was assayed according to a published method (Anal. Biochem. 1993, vol. 208, p. 387-392). More specifically, 200 μL of a reaction solution containing 0.5 mg/mL casein, 50 mM Tris-HCl buffer (pH 7.4), 20 mM dithiothreitol and 1.0 nmol μ-calpain (derived from human red blood cells, Cosmo Bio Co., Ltd.) or m-calpain (derived from porcine kidney, Cosmo Bio Co., Ltd.) was added to individual 2.5 μL portions of DMSO solution containing a varying concentration of a test sample in a 96-well plate. Then, 50 μL of 20 mM aqueous calcium chloride was added thereto, and reaction was performed at 30° C. for 60 minutes. 100 μL of the reaction solution was transferred to another 96-well plate, and purified water (50 μL) and 50% aqueous solution (100 μL) of Protein Assay Dye Reagent (available from Bio-Rad Laboratories, Inc.; catalogue No. 500-600) were added thereto. The reaction mixture was allowed to stand at room temperature for 15 minutes, and its absorbance was measured at 595 nm. The absorbance of a reaction mixture prepared in the same manner as mentioned above, except that a DMSO solution containing no sample was used as a control value; and the absorbance of a reaction mixture prepared in the same manner as mentioned above, except that a 1 mM aqueous EDTA solution (50 μL) was used in place of 20 mM aqueous calcium chloride, was used as a blank value. […] Inhibition rate (%){1−(measured value−blank test value)/(control value−blank test value)}×100
The concentrations (IC50) are shown in Table 1 as enzyme (calpain) inhibitory activities (μM).

[2] = biological target: m-calpain (derived from porcine kidney) (Sus scrofa, UniProt I3LQD3); test: Measurement of inhibitory activity against m-calpain; format: biochemical; settings: casein substrate, 30° C., 60 minutes; read-out: enzyme inhibitory activities (μM) m-calpain
Description: as §1, with “More” for “The inhibitory activity against μ-calpain and m-calpain was assayed according to a published method (Anal. Biochem. 1993, vol. 208, p. 387-392). More”, “The reaction mixture was allowed to stand at room temperature for 15 minutes, and its absorbance was measured at 595 nm.” left out

[3] = system: nerve cells from cerebellums of FVB mice; test: Analysis of toxicity of calpain inhibitors on cultured cerebellar nerve cells; format: cell-based, mouse; settings: 16 hours, FIG. 24
Description: The cerebellums were removed from 4- to 5-day-old FVB mice (15 mice). In a Ca^2+-free Hank's Balanced Salt Solution (CF-HBSS; Ca^2+, Mg^2+-free Hank's Balanced Salt Solution (CMF-HBBS, Sigma) containing 5 mM magnesium chloride (MgCl2, Wako) and 4 mg/mL glucose (Wako)), the meninges were removed and cut into pieces. After the cerebellum fragments were washed with CF-HBSS, the fragments were allowed to stand for 20 minutes at 37° C. in CF-HBSS containing 0.025% trypsin (Invitrogen) and 6.25 μg/mL deoxyribonuclease (DNase, Sigma), and then centrifuged. The resulting tissues were washed with 10% HS/BME (DNase Medium; obtained by adding 5 mM MgCl2 and 25 μg/mL DNase to Basal Medium Eagle (BME, Invitrogen) containing 10% Horse Serum (HS, Invitrogen)) and centrifuged. DNase medium was added to the cells, and the cells were transferred to a 24-well plate (Nunc). The cells were kept still for 30 minutes at 37′C under an atmospheric environment of 5% CO2, thereby suspending the cells. The cell suspension was isolated, and then washed with 10% HS/BME. The suspension was transferred again to a 24-well plate to be cultured for 16 hours at 37° C. under an atmospheric environment of 5% CO2. The cells were collected to BME containing 1% Bovine Serum Albumin (BSA, Sigma) and 0.5% N2 supplement (Invitrogen), and the cell suspension was seeded on a 35 mm glass base dish (Iwaki) coated beforehand with poly-L-lysine (Sigma) and laminin (Sigma) in an amount of […]. The cells were cultured for 8 hours at 37° C. under an atmospheric environment of 5% CO2. The cultured nerve cells were used as test nerve cells.
A culture solution (10% HS/BME) containing SNJ-1945, E64d, or ALLN was prepared in the following manner. SNJ-1945 dissolved in dimethyl sulfoxide (Sigma, D-5879) was mixed with a culture solution so that the final concentration became 200 μM, and was kept still for an hour at 37° C., thereby completely dissolving SNJ-1945 in the culture medium. ALLN and E64d were also dissolved in culture media in the same manner, except that ALLN and E64d were added to the culture media to final concentrations of 50 μM and 100 μM, respectively. The culture media in which the components were dissolved were added to the test nerve cells prepared above in an amount of 2 ml/well, and the cells were cultured for 16 hours. As a control, the same culture was conducted using a culture medium containing the same amount of dimethyl sulfoxide (Sigma, D-5879). After culture, the cells were observed using an inverted microscope (TCS FP5S, Leica). A 20× objective lens was used. Images were taken using dedicated software (LAS AF, Leica) under the condition of 512×512 pixels.

[4] = system: cells with LIS1 gene heterozygous mutation (Lis1+/−); settings: Lis1+/− cells treated with ALLN, NPL 1; cited from earlier work

Sequence of m-calpain (derived from porcine kidney) (I3LQD3 entry or part of it): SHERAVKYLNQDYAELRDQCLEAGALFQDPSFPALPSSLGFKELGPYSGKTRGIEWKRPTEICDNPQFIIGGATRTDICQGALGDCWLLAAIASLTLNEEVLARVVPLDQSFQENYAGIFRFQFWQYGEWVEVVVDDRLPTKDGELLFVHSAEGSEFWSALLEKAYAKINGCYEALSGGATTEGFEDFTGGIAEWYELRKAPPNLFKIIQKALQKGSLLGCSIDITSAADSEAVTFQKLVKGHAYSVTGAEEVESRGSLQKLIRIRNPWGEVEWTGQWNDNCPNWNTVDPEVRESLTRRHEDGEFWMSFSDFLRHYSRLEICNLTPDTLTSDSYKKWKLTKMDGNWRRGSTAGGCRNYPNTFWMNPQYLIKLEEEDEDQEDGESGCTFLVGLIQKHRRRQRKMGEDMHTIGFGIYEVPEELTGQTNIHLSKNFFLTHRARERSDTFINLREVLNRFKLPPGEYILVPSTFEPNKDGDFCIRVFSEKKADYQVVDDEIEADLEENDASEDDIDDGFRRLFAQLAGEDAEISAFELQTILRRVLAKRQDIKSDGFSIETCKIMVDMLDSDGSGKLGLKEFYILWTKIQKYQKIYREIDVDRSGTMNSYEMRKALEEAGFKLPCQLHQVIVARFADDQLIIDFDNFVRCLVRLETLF
Sequence of m-calpain (derived from porcine kidney) (P04574 whole entry, further chain): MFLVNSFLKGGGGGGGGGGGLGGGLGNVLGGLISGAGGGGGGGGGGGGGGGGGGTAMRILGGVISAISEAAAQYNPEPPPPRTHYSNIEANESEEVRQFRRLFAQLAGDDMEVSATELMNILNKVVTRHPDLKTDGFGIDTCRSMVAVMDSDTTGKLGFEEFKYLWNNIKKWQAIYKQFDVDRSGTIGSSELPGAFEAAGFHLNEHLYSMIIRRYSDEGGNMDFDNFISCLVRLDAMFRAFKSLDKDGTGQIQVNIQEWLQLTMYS

Row | Compound | IC50 [1] [µM] | melting point [°C] | IC50 [2] [µM] | neurite elongation and cell migration (cytotoxicity) ([3]; 100 μM) | LIS1 protein expression [4] | neuronal migration [4] | neurite elongation and cell migration (cytotoxicity) ([3]; 50 μM)
1 | COCCOCCOCCOCCOC(=O)N[C@@H](CC(C)C)C(=O)N[C@@H](Cc1ccccc1)C(=O)C(=O)NC1CC1 [compound 19, ((1S)-1-((((1S)-1-Benzyl-2,3-dioxo-3-(cyclopropylamino)propyl)amino)carbonyl)-3-methylbutyl)carbamic acid 11-methoxy-3,6,9-trioxaundecanyl ester] | 0.22 | 97.5 to 98.5 | 0.17 |  |  |  | 
2 | CCOC(=O)[C@H]1O[C@@H]1C(=O)N[C@@H](CC(C)C)C(=O)NCCC(C)C [E64d, reference compound] |  |  |  | the cells were aggregated in the center, many cells were incapable of neurite elongation, little migration was observed compared with the control |  |  | 
3 | COCCOCCOCCOCCOCCOC(=O)N[C@@H](CC(C)C)C(=O)N[C@@H](Cc1ccccc1)C(=O)C(=O)NC1CC1 [compound 20, ((1S)-1-((((1S)-1-Benzyl-2,3-dioxo-3-(cyclopropylamino)propyl)amino)carbonyl)-3-methylbutyl)carbamic acid 14-methoxy-3,6,9,12-tetraoxatetradecanyl ester] | 0.42 | 98.5 to 99.9 | 0.19 |  |  |  | 
4 | CCCCC(C=O)NC(=O)C(CC(C)C)NC(=O)C(CC(C)C)NC(C)=O (stereo not drawn) [ALLN, N-Acetyl-Leu-Leu-Nle-CHO] (Ac-Leu-Leu-[Nle]-aldehyde; configuration not given here) |  |  |  |  | increased LIS1 protein expression | restored neuronal migration | the cells were roundly aggregated, neurite elongation was hardly observed, the cells remained accumulated in the center, and migration was hardly observed
